Key:
MCF-7 cells = assay: Breast Cancer Cell Viability Assay (MCF-7, CellTiter-Glo); assay type: cell-based; conditions: 5 days' compound exposure; for IC50: Homo sapiens, MCF7, 120 h
Experimental: MCF-7 cells were adjusted to a concentration of 20,000 cells per mL in RPMI containing 10% FBS and 20 mM HEPES. 16 microliters of the cell suspension (320 cells) was added to each well of a 384 well plate, and the cells were incubated overnight to allow the cells to adhere. The following day an eleven point, serial semilog dilution of each compound was added to the cells in 16 μL at a final concentration ranging from 0.3-0.000003 μM. After 5 days' compound exposure, 16 μL of CellTiter-GLo (Promega, Madison Wis.) was added to the cells the relative luminescence units (RLUs) of each well was determined CellTiter-Glo added to 32 μL of medium without cells was used to obtain a background value. The Percent viability of each sample was determined as follows: (RLU sample-RLU background/RLU untreated cells-RLU background)×100=% viability.

ER-α = target: T1, ER-α (Homo sapiens, UniProt P03372); assay: Breast Cancer Cell ER-α In Cell Western Assay (SP1); assay type: cell-based; conditions: MCF-7 cells, SP1 antibody, 4 or 24 hr post compound addition; for Emax: MCF7, read-out: ER-α In Cell Western Assay (SP1) Max Response; for DC50: read-out: ER-α In Cell Western Assay (SP1) IC50
T1 sequence (P03372 1-595): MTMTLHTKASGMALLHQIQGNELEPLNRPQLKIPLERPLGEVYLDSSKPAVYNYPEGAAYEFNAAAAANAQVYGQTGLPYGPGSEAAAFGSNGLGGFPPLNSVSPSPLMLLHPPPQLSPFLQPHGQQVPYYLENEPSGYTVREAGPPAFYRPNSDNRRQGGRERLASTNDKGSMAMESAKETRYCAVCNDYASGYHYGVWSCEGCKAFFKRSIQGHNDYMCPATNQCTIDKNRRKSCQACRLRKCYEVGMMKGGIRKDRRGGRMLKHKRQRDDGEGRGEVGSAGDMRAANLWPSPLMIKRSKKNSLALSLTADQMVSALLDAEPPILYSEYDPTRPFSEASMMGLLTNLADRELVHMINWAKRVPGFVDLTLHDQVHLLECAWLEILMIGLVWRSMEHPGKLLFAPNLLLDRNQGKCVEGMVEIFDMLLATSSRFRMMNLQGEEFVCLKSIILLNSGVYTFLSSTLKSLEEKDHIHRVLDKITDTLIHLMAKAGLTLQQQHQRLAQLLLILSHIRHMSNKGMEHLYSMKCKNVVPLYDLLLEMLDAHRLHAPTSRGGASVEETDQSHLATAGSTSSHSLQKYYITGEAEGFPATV
Experimental: MCF-7 cells were adjusted to a concentration of 200,000 cells per mL in RPMI containing 10% charcoal-stripped FBS and 20 mM HEPES. 16 microliters of the cell suspension (3200 cells) was added to each well of a poly-D-lysine 384 well plate, and the cells were incubated overnight to allow the cells to adhere. The following day an eleven point, serial semilog dilution of each compound was added to the cells in 16 μL at a final concentration ranging from 0.3-0.000003 μM. At 4 or 24 hr post compound addition, the cells were fixed (10% formalin in PBS) for 20 minutes. Cells were permeablized in PBS 0.1% Triton and blocked with LICOR blocking buffer (50 μL1/well, 90′). The wells were then incubated overnight at 4° C. with SP1 rabbit monoclonal Ab (Thermo Scientific) diluted 1:1000 in LICOR blocking buffer/0.1% Tween-20. Wells which were treated with blocking buffer with Tween but no antibody were used as a background control. Wells were washed with 0.1% Tween-20/PBS and then incubated in goat anti-rabbit IRDye™ 800CW (LICOR Inc.; 1:1000) and DRAQ5 DNA dye (1:2000 for 2 mM stock) diluted in LICOR blocking buffer containing 0.1% Tween-20 and 0.01% SDS for 60 minutes. Cells were washed (50 μl/well, 5′ each) in 0.1% Tween-20/PBS. Plates were scanned on a LICOR Odyssey infrared imaging system. Integrated intensities in the 800 nm channel and 700 nm channel were measured to determine levels of ER and DNA respectively. Percent ER levels were determined as follows: (Integrated intensity 800 nm sample/integrated intensity 700 nm sample)/(Integrated intensity 800 nm untreated cells/integrated intensity 700 nm untreated cells)×100=% ER levels.

| IC50 (MCF-7 cells) | Emax (ER-α) | DC50 (ER-α) | Compound | MCF7 Viability Assay Max Response (MCF-7 cells) |
| --- | --- | --- | --- | --- |
| ≤ 100 nM | ≥ 40% | ≤ 100 nM | CCOC(=O)/C=C/c1ccc(/C(=C(/CC)c2ccccc2)c2ccc3[nH]ncc3c2)cc1 [Compound 1, (E)-Ethyl 3-(4-((E)-1-(1H-indazol-5-yl)-2-phenylbut-1-en-1-yl)phenyl)acrylate] | + (+ = a single % value < 40%) |
| ≤ 100 nM | ≥ 40% |  | CC/C(=C(/c1ccc(/C=C/C(=O)O)cc1)c1ccc2[nH]ncc2c1)c1ccccc1 [Compound 2, (E)-3-(4-((E)-1-(1H-Indazol-5-yl)-2-phenylbut-1-en-1-yl)phenyl)acrylic acid] | ++ (++ = a single % value ≧ 40%) |
| ≤ 100 nM | ≥ 40% | ≤ 100 nM | CC/C(=C(/c1ccc(/C=C/C(=O)O)cc1)c1ccc2[nH]ncc2c1)c1ccc(F)cc1 [Compound 3, (E)-3-(4-((E)-2-(4-Fluorophenyl)-1-(1H-indazol-5-yl)but-1-en-1-yl)phenyl)acrylic acid] | ++ (++ = a single % value ≧ 40%) |
| ≤ 100 nM | ≥ 40% |  | CC/C(=C(/c1ccc(/C=C/C(=O)O)cc1)c1ccc2[nH]ncc2c1)c1ccc(Cl)cc1 [Compound 4, (E)-3-(4-((E)-2-(4-Chlorophenyl)-1-(1H-indazol-5-yl)but-1-en-1-yl)phenyl)acrylic acid] | ++ (++ = a single % value ≧ 40%) |
| ≤ 100 nM | ≥ 40% | ≤ 100 nM | CC/C(=C(/c1ccc(/C=C/C(=O)O)cc1)c1ccc2[nH]ncc2c1)c1cccc(OC)c1 [Compound 5, (E)-3-(4-((E)-1-(1H-indazol-5-yl)-2-(3-methoxyphenyl)but-1-en-1-yl)phenyl)acrylic acid] | ++ (++ = a single % value ≧ 40%) |
| > 100 nM | ≥ 40% | ≤ 100 nM | CC/C(=C(/c1ccc(/C=C/C(=O)O)cc1)c1ccc2[nH]ncc2c1)c1cccc(CO)c1 [Compound 6, (E)-3-(4-((E)-2-(3-(Hydroxymethyl)phenyl)-1-(1H-indazol-5-yl)but-1-en-1-yl)phenyl)acrylic acid] | ++ (++ = a single % value ≧ 40%) |
| ≤ 100 nM | ≥ 40% | ≤ 100 nM | CC/C(=C(/c1ccc(/C=C/C(=O)O)cc1)c1ccc2[nH]ncc2c1)c1ccc(CO)cc1 [Compound 7, (E)-3-(4-((E)-2-(4-(Hydroxymethyl)phenyl)-1-(1H-indazol-5-yl)but-1-en-1-yl)phenyl)acrylic acid] | ++ (++ = a single % value ≧ 40%) |
| > 100 nM | ≥ 40% | ≤ 100 nM | CC/C(=C(/c1ccc(/C=C/C(=O)O)cc1)c1ccc2[nH]ncc2c1)c1ccccc1CO [Compound 8, (E)-3-(4-((E)-2-(2-(Hydroxymethyl)phenyl)-1-(1H-indazol-5-yl)but-1-en-1-yl)phenyl)acrylic acid] | ++ (++ = a single % value ≧ 40%) |
| ≤ 100 nM | ≥ 40% |  | CC/C(=C(/c1ccc(/C=C/C(=O)O)cc1)c1ccc2[nH]ncc2c1)c1ccccc1C [Compound 9, (E)-3-(4-((E)-1-(1H-Indazol-5-yl)-2-(o-tolyl)but-1-en-1-yl)phenyl)acrylic acid] | ++ (++ = a single % value ≧ 40%) |
| ≤ 100 nM | ≥ 40% | ≤ 100 nM | CC/C(=C(/c1ccc(/C=C/C(=O)O)cc1)c1ccc2[nH]ncc2c1)c1cccc(C)c1 [Compound 10, (E)-3-(4-((E)-1-(1H-Indazol-5-yl)-2-(m-tolyl)but-1-en-1-yl)phenyl)acrylic acid] | ++ (++ = a single % value ≧ 40%) |
| ≤ 100 nM | ≥ 40% | ≤ 100 nM | CC/C(=C(/c1ccc(/C=C/C(=O)O)cc1)c1ccc2[nH]ncc2c1)c1ccc(C)cc1 [Compound 11, (E)-3-(4-((E)-1-(1H-Indazol-5-yl)-2-(p-tolyl)but-1-en-1-yl)phenyl)acrylic acid] | ++ (++ = a single % value ≧ 40%) |
| ≤ 100 nM | ≥ 40% |  | CC/C(=C(/c1ccc(/C=C/C(=O)O)cc1)c1ccc2[nH]ncc2c1)c1ccccc1OC [Compound 12, (E)-3-(4-((E)-1-(1H-Indazol-5-yl)-2-(2-methoxyphenyl)but-1-en-1-yl)phenyl)acrylic acid] | ++ (++ = a single % value ≧ 40%) |
| ≤ 100 nM | ≥ 40% | ≤ 100 nM | CC/C(=C(/c1ccc(/C=C/C(=O)O)cc1)c1ccc2[nH]ncc2c1)c1ccc(OC)cc1 [Compound 13, (E)-3-(4-((E)-1-(1H-Indazol-5-yl)-2-(4-methoxyphenyl)but-1-en-1-yl)phenyl)acrylic acid] | ++ (++ = a single % value ≧ 40%) |
| ≤ 100 nM | ≥ 40% |  | CC/C(=C(/c1ccc(/C=C/C(=O)O)cc1)c1ccc2[nH]ncc2c1)c1ccccc1Cl [Compound 14, (E)-3-(4-((E)-2-(2-chlorophenyl)-1-(1H-indazol-5-yl)but-1-en-1-yl)phenyl)acrylic acid] | ++ (++ = a single % value ≧ 40%) |
| ≤ 100 nM | ≥ 40% |  | CC/C(=C(/c1ccc(/C=C/C(=O)O)cc1)c1ccc2[nH]ncc2c1)c1cccc(Cl)c1 [Compound 15, (E)-3-(4-((E)-2-(3-Chlorophenyl)-1-(1H-indazol-5-yl)but-1-en-1-yl)phenyl)acrylic acid] | ++ (++ = a single % value ≧ 40%) |
| ≤ 100 nM | ≥ 40% | ≤ 100 nM | CC/C(=C(/c1ccc(/C=C/C(=O)O)cc1)c1ccc2[nH]ncc2c1)c1ccccc1F [Compound 16, (E)-3-(4-((E)-2-(2-Fluorophenyl)-1-(1H-indazol-5-yl)but-1-en-1-yl)phenyl)acrylic acid] | ++ (++ = a single % value ≧ 40%) |
| ≤ 100 nM |  |  | CCOC(=O)/C=C/c1ccc(/C(=C(/CC)c2ccccc2OC)c2ccc3[nH]ncc3c2)cc1 [Compound 91, (E)-ethyl 3-(4-((E)-1-(1H-indazol-5-yl)-2-(2-methoxyphenyl)but-1-en-1-yl)phenyl)acrylate] | + (+ = a single % value < 40%) |
| ≤ 100 nM |  |  | CCOC(=O)/C=C/c1ccc(/C(=C(/CC)c2ccc(OC)cc2)c2ccc3[nH]ncc3c2)cc1 [Compound 92, (E)-Ethyl 3-(4-((E)-1-(1H-Indazol-5-yl)-2-(4-methoxyphenyl)but-1-en-1-yl)phenyl)acrylate] | + (+ = a single % value < 40%) |
| ≤ 100 nM |  |  | CC/C(=C(/c1ccc(/C=C/C(=O)O)cc1)c1ccc2[nH]ncc2c1)c1ccc(F)cc1Cl [Compound 111, (E)-3-(4-((E)-2-(2-Chloro-4-fluorophenyl)-1-(1H-indazol-5-yl)but-1-en-1-yl)phenyl)acrylic acid] | ++ (++ = a single % value ≧ 40%) |
| ≤ 100 nM |  |  | [2H]C([2H])([2H])C([2H])([2H])/C(=C(/c1ccc(/C=C/C(=O)O)cc1)c1ccc2[nH]ncc2c1)c1ccc(F)cc1Cl [Compound 136, (E)-3-(4-((E)-2-(2-Chloro-4-fluorophenyl)-3,3,4,4,4-pentadeutero-1-(1H-indazol-5-yl)but-1-en-1-yl)phenyl)acrylic acid] | ++ (++ = a single % value ≧ 40%) |

Reference: patent US8455534B2, “Estrogen receptor modulators and uses thereof” (Aragon Pharmaceuticals, Inc., priority 2010, dated 2013)
